Assay: Inhibition of TNFalpha in mouse L929 cells exposed to compound incubated for 1 hr with mouse TNFalpha by luminescence based assay

| SMILES | IC50 [nM] |
| --- | --- |
| C[C@@H]1CN(c2ncc(-c3ccc4c(c3)N(Cc3cccnc3C#N)C(C)(C)C4=O)cn2)CCN1C(=O)CO | 119 |
| C[C@@H]1CN(c2ncc(-c3ccc4c(c3)N(Cc3ccccc3OC(F)F)C(C)(C)C4=O)cn2)CCN1C(=O)CO | 146 |
| CN1CCN(Cc2ccc(-c3c[nH]c4ccncc34)c(OCCc3ccc(-c4cccc5ccncc45)cc3)c2)CC1 | 128 |
| CC1(C)C(=O)c2ccc(-c3cnc(N4CCN5C(=O)NC[C@@H]5C4)nc3)cc2N1Cc1cccnc1C#N | 99 |

Reference: BindingDB's records for doi:10.1021/acs.jmedchem.0c01280 (Abbvie, 2021)
